Reference: patent US12338237B2, “Derivatives having 1,2,3,4-tetrahydronaphthalene moiety or pharmaceutically acceptable salt thereof and pharmaceutical compositions comprising the same” (YUHAN CORPORATION, priority 2019, dated 2025)
Like-named read-outs stand apart in the source and are kept apart here.

Legend:
[1] = target: glucosylceramide synthase (GCS) (Homo sapiens (Human), UniProt Q16739); assay: Evaluation of inhibitory activities against GCS (enzyme reaction with A549 cell lysate, NBD C6-ceramide, HPLC fluorescence); type: biochemical; conditions: GCS activity in A549 cell lysate, 37° C. for 90 minutes
Procedure: Ibiglustat, known as a GCS inhibitor, was used as a control.
After the cells attached to the culture dish were washed with phosphate buffered saline (PBS), the cells were scraped off with a cell scraper and then centrifuged (4000 rpm, 3 min, 4° C.) to collect the cells in a 50 ml tube. The cell pellets were suspended in a lysis buffer (50 mM HEPES, pH 7.3, containing 1× the protease/phosphatase inhibitor cocktail), lysed by sonication, and then the lysate was centrifuged (13000 rpm, 10 min, 4° C.). The obtained supernatant was used for the quantitative analysis of proteins. The amount of proteins was measured using the BCA protein assay kit, using bovine serum albumin as a standard.
Enzymatic reactions were initiated by sequentially adding the following reaction materials to a 96 deep-well plate. Thereafter, the enzymatic reactions were performed at 37° C. for 90 minutes.
The enzymatic reactions were stopped by adding 100 μl of chloroform/methanol (2:1, v/v). After vortexing for 15 seconds, each mixture was centrifuged (4000 rpm, 10 min, 18° C.). The lower layer (50 μl) was transferred to a new 96 deep-well plate and dried with a reduced concentrator.
Data analysis was performed by the following equations. % Area (Sample)=Area (GlcCer)/[Area (Cer)+Area (GlcCer)]×100 % GCS activity=[Area(Sample)−Area(ibiglustat)]/[Area(DMSO)−Area(ibiglustat)]×100

[2] = test system: GM1 production; assay: cells; type: cell-based

Chain of glucosylceramide synthase (GCS) (Q16739 whole entry, looked up): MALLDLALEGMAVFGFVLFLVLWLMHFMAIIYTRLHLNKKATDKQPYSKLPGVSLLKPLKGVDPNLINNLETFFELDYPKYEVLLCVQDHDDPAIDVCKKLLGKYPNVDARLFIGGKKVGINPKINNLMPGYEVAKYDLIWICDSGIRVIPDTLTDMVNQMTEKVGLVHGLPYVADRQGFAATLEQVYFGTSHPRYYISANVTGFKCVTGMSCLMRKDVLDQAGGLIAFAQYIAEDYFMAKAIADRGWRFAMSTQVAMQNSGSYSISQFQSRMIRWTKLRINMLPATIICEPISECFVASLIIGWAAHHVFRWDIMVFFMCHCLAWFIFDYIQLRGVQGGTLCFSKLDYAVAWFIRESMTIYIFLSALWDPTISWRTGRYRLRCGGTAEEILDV

SMILES | IC50 [1] [nM] | IC50 ([2]; Homo sapiens, Jurkat, 72 h) [nM] | IC50 ([2]; read-out: IC50) [nM]
O=C(NC1CCCc2cc(-c3ccc(F)cc3)ccc21)O[C@@H]1CN2CCC1CC2 (stereo partly drawn) [Example 1, (S)-quinuclidin-3-yl (6-(4-fluorophenyl)-1,2,3,4-tetrahydronaphthalen-1-yl)carbamate] | 6.78 | 62.6 | –
O=C(NC1CCCc2cc(-c3ccc(Cl)cc3)ccc21)O[C@@H]1CN2CCC1CC2 (stereo partly drawn) [Example 2, (S)-quinuclidin-3-yl (6-(4-chlorophenyl)-1,2,3,4-tetrahydronaphthalen-1-yl)carbamate] | 3.04 | 54.5 | –
O=C(NC1CCCc2cc(-c3ccc(C(F)(F)F)cc3)ccc21)O[C@@H]1CN2CCC1CC2 (stereo partly drawn) [Example 3, (S)-quinuclidin-3-yl (6-(4-(trifluoromethyl)phenyl)-1,2,3,4-tetrahydronaphthalen-1-yl)carbamate] | 2.3 | 58.7 | –
O=C(NC1CCCc2cc(-c3ccc(OC(F)(F)F)cc3)ccc21)O[C@@H]1CN2CCC1CC2 (stereo partly drawn) [Example 4, (S)-quinuclidin-3-yl (6-(4-(trifluoromethoxy)phenyl)-1,2,3,4-tetrahydronaphthalen-1-yl)carbamate] | 1.42 | 34.9 | –
O=C(NC1CCCc2cc(-c3cccc(F)c3)ccc21)O[C@@H]1CN2CCC1CC2 (stereo partly drawn) [Example 5, (S)-quinuclidin-3-yl (6-(3-fluorophenyl)-1,2,3,4-tetrahydronaphthalen-1-yl)carbamate] | 0.989 | 27.1 | –
O=C(NC1CCCc2cc(-c3cccc(Cl)c3)ccc21)O[C@@H]1CN2CCC1CC2 (stereo partly drawn) [Example 6, (S)-quinuclidin-3-yl (6-(3-chlorophenyl)-1,2,3,4-tetrahydronaphthalen-1-yl)carbamate] | 0.697 | 15.8 | –
O=C(NC1CCCc2cc(-c3cccc(C(F)(F)F)c3)ccc21)O[C@@H]1CN2CCC1CC2 (stereo partly drawn) [Example 7, (S)-quinuclidin-3-yl (6-(3-(trifluoromethyl)phenyl)-1,2,3,4-tetrahydronaphthalen-1-yl)carbamate] | 1.69 | 13.6 | –
O=C(NC1CCCc2cc(-c3cccc(OC(F)(F)F)c3)ccc21)O[C@@H]1CN2CCC1CC2 (stereo partly drawn) [Example 8, (S)-quinuclidin-3-yl (6-(3-(trifluoromethoxy)phenyl)-1,2,3,4-tetrahydronaphthalen-1-yl)carbamate] | 2.1 | 12.4 | –
O=C(NC1CCCc2cc(-c3ccccc3F)ccc21)O[C@@H]1CN2CCC1CC2 (stereo partly drawn) [Example 9, (S)-quinuclidin-3-yl (6-(2-fluorophenyl)-1,2,3,4-tetrahydronaphthalen-1-yl)carbamate] | 2.65 | 41.3 | –
O=C(NC1CCCc2cc(-c3ccccc3Cl)ccc21)O[C@@H]1CN2CCC1CC2 (stereo partly drawn) [Example 10, (S)-quinuclidin-3-yl (6-(2-chlorophenyl)-1,2,3,4-tetrahydronaphthalen-1-yl)carbamate] | 2.56 | 37.7 | –
O=C(NC1CCCc2cc(-c3ccccc3C(F)(F)F)ccc21)O[C@@H]1CN2CCC1CC2 (stereo partly drawn) [Example 11, (S)-quinuclidin-3-yl (6-(2-(trifluoromethyl)phenyl)-1,2,3,4-tetrahydronaphthalen-1-yl)carbamate] | 8.18 | 38.5 | –
O=C(NC1CCCc2cc(-c3ccccc3OC(F)(F)F)ccc21)O[C@@H]1CN2CCC1CC2 (stereo partly drawn) [Example 12, (S)-quinuclidin-3-yl (6-(2-(trifluoromethoxy)phenyl)-1,2,3,4-tetrahydronaphthalen-1-yl)carbamate] | 9.28 | 19.6 | –
O=C(NC1CCCc2cc(-c3ccc(OC(F)F)cc3)ccc21)O[C@@H]1CN2CCC1CC2 (stereo partly drawn) [Example 13, (S)-quinuclidin-3-yl (6-(4-(difluoromethoxy)phenyl)-1,2,3,4-tetrahydronaphthalen-1-yl)carbamate] | 23.5 | 143 | –
Cc1ccc(-c2ccc3c(c2)CCCC3NC(=O)O[C@@H]2CN3CCC2CC3)cc1 (stereo partly drawn) [Example 14, (S)-quinuclidin-3-yl (6-(p-tolyl)-1,2,3,4-tetrahydronaphthalen-1-yl)carbamate] | 8.8 | 61.8 | –
O=C(NC1CCCc2cc(-c3ccc(F)c(F)c3)ccc21)O[C@@H]1CN2CCC1CC2 (stereo partly drawn) [Example 15, (S)-quinuclidin-3-yl (6-(3,4-difluorophenyl)-1,2,3,4-tetrahydronaphthalen-1-yl)carbamate] | 6.88 | 19.7 | –
O=C(NC1CCCc2cc(-c3cc(F)ccc3F)ccc21)O[C@@H]1CN2CCC1CC2 (stereo partly drawn) [Example 16, (S)-quinuclidin-3-yl (6-(2,5-difluorophenyl)-1,2,3,4-tetrahydronaphthalen-1-yl)carbamate] | 3.96 | 34 | –

SMILES | IC50 [1] [nM] | IC50 ([2]; Homo sapiens, Jurkat, 72 h) [nM] | IC50 ([2]; read-out: IC50) [nM]
O=C(NC1CCCc2cc(-c3cc(F)cc(F)c3)ccc21)O[C@@H]1CN2CCC1CC2 (stereo partly drawn) [Example 17, (S)-quinuclidin-3-yl (6-(3,5-difluorophenyl)-1,2,3,4-tetrahydronaphthalen-1-yl)carbamate] | 5.75 | 37 | –
O=C(NC1CCCc2cc(-c3ccc(F)cc3F)ccc21)O[C@@H]1CN2CCC1CC2 (stereo partly drawn) [Example 18, (S)-quinuclidin-3-yl (6-(2,4-difluorophenyl)-1,2,3,4-tetrahydronaphthalen-1-yl)carbamate] | 5.41 | 99.2 | –
O=C(NC1CCCc2cc(-c3cccc(F)c3F)ccc21)O[C@@H]1CN2CCC1CC2 (stereo partly drawn) [Example 19, (S)-quinuclidin-3-yl (6-(2,3-difluorophenyl)-1,2,3,4-tetrahydronaphthalen-1-yl)carbamate] | 3.44 | 67.4 | –
O=C(NC1CCCc2cc(-c3ccc(F)c(F)c3F)ccc21)O[C@@H]1CN2CCC1CC2 (stereo partly drawn) [Example 20, (S)-quinuclidin-3-yl (6-(2,3,4-trifluorophenyl)-1,2,3,4-tetrahydronaphthalen-1-yl)carbamate] | 7.16 | 84.4 | –
O=C(NC1CCCc2cc(-c3cc(F)c(F)cc3F)ccc21)O[C@@H]1CN2CCC1CC2 (stereo partly drawn) [Example 21, (S)-quinuclidin-3-yl (6-(2,4,5-trifluorophenyl)-1,2,3,4-tetrahydronaphthalen-1-yl)carbamate] | 2.53 | 42.1 | –
O=C(NC1CCCc2cc(-c3ccc(Cl)c(Cl)c3)ccc21)O[C@@H]1CN2CCC1CC2 (stereo partly drawn) [Example 22, (S)-quinuclidin-3-yl (6-(3,4-dichlorophenyl)-1,2,3,4-tetrahydronaphthalen-1-yl)carbamate] | 8.42 | 22.5 | –
O=C(NC1CCCc2cc(-c3cc(Cl)ccc3Cl)ccc21)O[C@@H]1CN2CCC1CC2 (stereo partly drawn) [Example 23, (S)-quinuclidin-3-yl (6-(2,5-dichlorophenyl)-1,2,3,4-tetrahydronaphthalen-1-yl)carbamate] | 1.8 | 27.7 | –
O=C(NC1CCCc2cc(-c3cc(Cl)cc(Cl)c3)ccc21)O[C@@H]1CN2CCC1CC2 (stereo partly drawn) [Example 24, (S)-quinuclidin-3-yl (6-(3,5-dichlorophenyl)-1,2,3,4-tetrahydronaphthalen-1-yl)carbamate] | 9.1 | 23.1 | –
COCCOc1ccc(-c2ccc3c(c2)CCCC3NC(=O)O[C@@H]2CN3CCC2CC3)cc1 (stereo partly drawn) [Example 25, (S)-quinuclidin-3-yl (6-(4-(2-methoxyethoxy)phenyl)-1,2,3,4-tetrahydronaphthalen-1-yl)carbamate] | 15 | 45.1 | –
COCOc1ccc(-c2ccc3c(c2)CCCC3NC(=O)O[C@@H]2CN3CCC2CC3)cc1 (stereo partly drawn) [Example 26, (S)-quinuclidin-3-yl (6-(4-(methoxymethoxy)phenyl)-1,2,3,4-tetrahydronaphthalen-1-yl)carbamate] | 6.61 | 30.8 | –
COCCOc1cccc(-c2ccc3c(c2)CCCC3NC(=O)O[C@@H]2CN3CCC2CC3)c1 (stereo partly drawn) [Example 27, (S)-quinuclidin-3-yl (6-(3-(2-methoxyethoxy)phenyl)-1,2,3,4-tetrahydronaphthalen-1-yl)carbamate] | 2.49 | 30.3 | –
COCOc1cccc(-c2ccc3c(c2)CCCC3NC(=O)O[C@@H]2CN3CCC2CC3)c1 (stereo partly drawn) [Example 28, (S)-quinuclidin-3-yl (6-(3-(methoxymethoxy)phenyl)-1,2,3,4-tetrahydronaphthalen-1-yl)carbamate] | 1.33 | 5.31 | –
COCCOc1ccccc1-c1ccc2c(c1)CCCC2NC(=O)O[C@@H]1CN2CCC1CC2 (stereo partly drawn) [Example 29, (S)-quinuclidin-3-yl (6-(2-(2-methoxyethoxy)phenyl)-1,2,3,4-tetrahydronaphthalen-1-yl)carbamate] | 8.52 | 156 | –
COCOc1ccccc1-c1ccc2c(c1)CCCC2NC(=O)O[C@@H]1CN2CCC1CC2 (stereo partly drawn) [Example 30, (S)-quinuclidin-3-yl (6-(2-(methoxymethoxy)phenyl)-1,2,3,4-tetrahydronaphthalen-1-yl)carbamate] | 7.93 | 71.4 | –
O=C(NC1CCCc2ccc(-c3cccc(C(F)(F)F)c3)cc21)O[C@@H]1CN2CCC1CC2 (stereo partly drawn) [Example 60, (S)-quinuclidin-3-yl (7-(3-(trifluoromethyl)phenyl)-1,2,3,4-tetrahydronaphthalen-1-yl)carbamate] | 106 | – | –
CC1(C)CCc2cc(-c3cccc(F)c3F)ccc2C1NC(=O)O[C@@H]1CN2CCC1CC2 (stereo partly drawn) [Example 102, (S)-quinuclidin-3-yl (6-(2,3-difluorophenyl)-2,2-dimethyl-1,2,3,4-tetrahydronaphthalen-1-yl)carbamate] | – | – | 1.43
